According to ChEMBL document CHEMBL1141570, “Glycosidase profiling with immobilised glycosidase-inhibiting iminoalditols--a proof-of-concept study” (Bioorg Med Chem Lett, 2008):

target: T1, Beta-glucosidase (Agrobacterium sp. ATCC 21400, UniProt P12614); assay: Inhibition of Agrobacterium sp. beta-glucosidase
T1 sequence (P12614 whole entry): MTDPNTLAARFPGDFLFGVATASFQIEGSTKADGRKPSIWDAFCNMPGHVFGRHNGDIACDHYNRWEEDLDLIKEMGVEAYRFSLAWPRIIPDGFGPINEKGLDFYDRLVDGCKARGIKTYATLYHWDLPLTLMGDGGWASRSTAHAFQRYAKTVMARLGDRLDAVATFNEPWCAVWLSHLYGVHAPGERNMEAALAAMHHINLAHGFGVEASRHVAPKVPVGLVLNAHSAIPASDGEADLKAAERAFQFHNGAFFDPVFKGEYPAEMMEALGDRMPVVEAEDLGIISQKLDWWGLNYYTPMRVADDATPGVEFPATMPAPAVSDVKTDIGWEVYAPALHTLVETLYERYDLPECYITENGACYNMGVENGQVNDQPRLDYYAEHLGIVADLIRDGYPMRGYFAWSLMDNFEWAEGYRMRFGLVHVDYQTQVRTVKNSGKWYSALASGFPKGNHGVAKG

Structure (SMILES)	Ki
COC(=O)CCCCCNC(=O)[C@H](CCCCN1C[C@H](O)[C@@H](O)[C@H](O)[C@H]1CO)NS(=O)(=O)c1cccc2c(N(C)C)cccc12	6.2 µM
COC(=O)CCCCCNC(=O)CCCCCN1[C@H](CO)[C@@H](O)[C@H](O)[C@H]1CNS(=O)(=O)c1cccc2c(N(C)C)cccc12	0.9 µM
COC(=O)CCCCCNC(=O)[C@H](CCCCN1C[C@@H](O)[C@@H](O)[C@H](O)[C@H]1CO)NS(=O)(=O)c1cccc2c(N(C)C)cccc12	1000 µM
